Calls of active or inactive are those of the source. How the calls were made is not given here. Some results are limits rather than exact numbers.

The term IC50 denotes the concentration that inhibits the measured activity by half.

The target in experiment [1] is Endothelial PAS domain-containing protein 1 (Homo sapiens) (UniProt Q99814). Put plainly: potency against HIF reporters across cell lines – luminescence, panel, selectivity assay for HIF-2a inhibitor project, dose response (AID 651581). To be noted: human cell HIF reporter.
The target in experiment [2] is Hypoxia-inducible factor 1-alpha (Homo sapiens) (UniProt Q16665). Described as above. Conditions: human cell HIF reporter, HIF-1a.
Chain of Hypoxia-inducible factor 1-alpha (Homo sapiens) (Q16665 whole entry, looked up): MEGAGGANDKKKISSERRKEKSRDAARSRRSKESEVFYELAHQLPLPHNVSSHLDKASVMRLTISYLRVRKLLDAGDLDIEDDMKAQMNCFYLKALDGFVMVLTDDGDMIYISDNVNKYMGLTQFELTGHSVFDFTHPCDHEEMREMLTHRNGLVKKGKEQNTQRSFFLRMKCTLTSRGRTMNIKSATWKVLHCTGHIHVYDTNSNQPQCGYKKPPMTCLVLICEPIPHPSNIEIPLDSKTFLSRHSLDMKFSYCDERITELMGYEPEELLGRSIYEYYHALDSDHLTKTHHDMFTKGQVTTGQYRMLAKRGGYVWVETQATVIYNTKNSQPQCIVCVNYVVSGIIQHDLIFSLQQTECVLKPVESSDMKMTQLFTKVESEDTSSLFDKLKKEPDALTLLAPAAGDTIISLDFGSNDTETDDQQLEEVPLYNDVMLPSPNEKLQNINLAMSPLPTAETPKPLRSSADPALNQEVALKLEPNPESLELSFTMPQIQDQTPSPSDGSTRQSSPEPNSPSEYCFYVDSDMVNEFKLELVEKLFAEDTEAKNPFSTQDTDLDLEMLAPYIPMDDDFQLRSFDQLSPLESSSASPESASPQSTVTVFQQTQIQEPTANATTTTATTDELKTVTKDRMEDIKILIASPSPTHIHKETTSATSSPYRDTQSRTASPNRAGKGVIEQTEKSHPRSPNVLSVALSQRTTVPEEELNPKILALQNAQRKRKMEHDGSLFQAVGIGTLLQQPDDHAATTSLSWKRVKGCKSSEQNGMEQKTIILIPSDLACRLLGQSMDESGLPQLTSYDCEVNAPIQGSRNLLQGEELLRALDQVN

On to `O=C1C=CC(=O)N1c1ccccc1N1C(=O)C=CC1=O`, for which the IC50 in experiment [1] (HIF-2a PANC, mean of runs) is > 99 µM (inactive); in experiment [1] (HIF-2a PANC, run 1) it was more than 99 µM; in experiment [1] (HIF-2a PANC, run 2), more than 99 µM; in experiment [1] (HIF-2a, run 1), 13.4 µM; in experiment [1] (HIF-2a, run 2), 13.2 µM; in experiment [2] (run 1), 40.9 µM. The compound also yielded an IC50 in experiment [2] (run 2) of 34.6 µM. The IC50 result in experiment [1] (HIF-2a, mean of runs) was “inactive”; in experiment [2] (mean of runs) it was “inactive”.

With `O=C(O)c1ccc(N/N=C/c2ccc3ncccc3c2)cc1`, the concentration for half-maximal inhibition (IC50) in experiment [1] (HIF-2a PANC, run 1) is more than 99 µM; in experiment [1] (HIF-2a PANC, run 2), 19.3 µM; in experiment [1] (HIF-2a, run 1) it was less than 30 µM; in experiment [1] (HIF-2a, run 2) it was more than 99 µM; in experiment [2] (run 1) it was 18.8 µM; in experiment [2] (run 2), 16.8 µM. Further, the IC50 result in experiment [2] (mean of runs) is “inactive”.

Regarding `Cc1ccc(NC(=S)NNc2ncc(C(F)(F)F)cc2Cl)cc1`, the IC50 is 1.29 µM in experiment [1] (HIF-2a PANC, mean of runs); 1.66 µM in experiment [1] (HIF-2a PANC, run 1); 0.928 µM in experiment [1] (HIF-2a PANC, run 2); 4.58 µM in experiment [1] (HIF-2a, mean of runs); 4.66 µM in experiment [1] (HIF-2a, run 1); 4.49 µM in experiment [1] (HIF-2a, run 2). Also, the IC50 in experiment [2] (mean of runs) was 27 µM; in experiment [2] (run 1), 20.4 µM; in experiment [2] (run 2) it was 33.5 µM.

With `CCOC(=O)Cc1csc(NC(=S)NC(=O)c2ccc(F)cc2)n1`, the IC50 was more than 99 µM in experiment [1] (HIF-2a PANC, run 1); 13.5 µM in experiment [1] (HIF-2a PANC, run 2); 1.96 µM in experiment [1] (HIF-2a, mean of runs); 1.92 µM in experiment [1] (HIF-2a, run 1); 2.01 µM in experiment [1] (HIF-2a, run 2); 12.9 µM in experiment [2] (mean of runs). The IC50 in experiment [2] (run 1) is 13.5 µM; in experiment [2] (run 2), 12.4 µM.

Turning to `CSC(SC)=C(C#N)C(=O)c1ccccc1`, the IC50 in experiment [1] (HIF-2a PANC, run 1) is more than 99 µM; in experiment [1] (HIF-2a PANC, run 2), 77 µM; in experiment [1] (HIF-2a, mean of runs), 6.18 µM; in experiment [1] (HIF-2a, run 1) it was 6.56 µM; in experiment [1] (HIF-2a, run 2) it was 5.8 µM; in experiment [2] (mean of runs), 26.2 µM. For the same compound, the IC50 turned out to be 21.3 µM in experiment [2] (run 1) and 31.1 µM in experiment [2] (run 2).

With `CCOc1ccc(C(=O)Nc2cccc(C(=O)O)c2C)cc1Cl`, the IC50 is 28.2 µM in experiment [1] (HIF-2a PANC, mean of runs); 25 µM in experiment [1] (HIF-2a PANC, run 1); 31.5 µM in experiment [1] (HIF-2a PANC, run 2); 13.3 µM in experiment [1] (HIF-2a, run 1); 16.6 µM in experiment [1] (HIF-2a, run 2); more than 30 µM in experiment [2] (run 1). Further, the IC50 in experiment [2] (run 2) was more than 99 µM. Further, in experiment [1] (HIF-2a, mean of runs), the IC50 entry is “inactive”.

For `O=C(O)c1cccc(-c2nc3ccccc3[nH]2)c1`, the IC50 was > 99 µM (inactive) in experiment [1] (HIF-2a PANC, mean of runs); more than 99 µM in experiment [1] (HIF-2a PANC, run 1); more than 99 µM in experiment [1] (HIF-2a PANC, run 2); 14.5 µM in experiment [1] (HIF-2a, run 1); 15.5 µM in experiment [1] (HIF-2a, run 2); more than 99 µM in experiment [2] (run 1). The compound further displayed an IC50 in experiment [2] (run 2) of more than 99 µM. Besides, the IC50 entry in experiment [1] (HIF-2a, mean of runs) is “inactive”.

Take `COCCn1c(C)cc(C(=O)CSc2nnc(C)s2)c1C`: the IC50 in experiment [1] (HIF-2a PANC, mean of runs) is 7.96 µM; in experiment [1] (HIF-2a PANC, run 1), 3.81 µM; in experiment [1] (HIF-2a PANC, run 2) it was 12.1 µM; in experiment [1] (HIF-2a, mean of runs), 5.99 µM; in experiment [1] (HIF-2a, run 1), 6.5 µM; in experiment [1] (HIF-2a, run 2) it was 5.48 µM. Moreover, the IC50 in experiment [2] (run 1) worked out at 8.55 µM; in experiment [2] (run 2), 18.9 µM. Further, the IC50 entry in experiment [2] (mean of runs) was “inactive”.

As for `NNC(=O)COc1ccc(-c2nccc(-c3ccc(F)cc3)n2)cc1`, the IC50 was 2.37 µM in experiment [1] (HIF-2a PANC, mean of runs); 2.39 µM in experiment [1] (HIF-2a PANC, run 1); 2.34 µM in experiment [1] (HIF-2a PANC, run 2); 2.66 µM in experiment [1] (HIF-2a, mean of runs); 2.56 µM in experiment [1] (HIF-2a, run 1); 2.75 µM in experiment [1] (HIF-2a, run 2). The IC50 in experiment [2] (run 1) is 3.37 µM; in experiment [2] (run 2), 1.1 µM. For the same compound, the IC50 entry in experiment [2] (mean of runs) is “inactive”.

On to `O=C(O)c1ccc2nc(-c3ccccc3)sc2c1`, for which the IC50 in experiment [1] (HIF-2a PANC, mean of runs) was 11.4 µM; in experiment [1] (HIF-2a PANC, run 1) it was 12.7 µM; in experiment [1] (HIF-2a PANC, run 2) it was 10.2 µM; in experiment [1] (HIF-2a, run 1) it was less than 30 µM; in experiment [1] (HIF-2a, run 2), more than 99 µM; in experiment [2] (run 1), 26.6 µM. The compound also showed an IC50 in experiment [2] (run 2) of 22.9 µM. The IC50 entry in experiment [2] (mean of runs) was “inactive”.

As to `O=C1C=CC(=O)N1c1cccc(-c2ccccc2)c1`, the IC50 in experiment [1] (HIF-2a PANC, run 1) is more than 99 µM; in experiment [1] (HIF-2a PANC, run 2), 58.5 µM; in experiment [1] (HIF-2a, mean of runs), 8.09 µM; in experiment [1] (HIF-2a, run 1) it was 7.96 µM; in experiment [1] (HIF-2a, run 2), 8.22 µM; in experiment [2] (mean of runs), 31.4 µM. Further, the results for the half-inhibitory concentration (IC50) in experiment [2] (run 1) and in experiment [2] (run 2) were 26.2 µM and 36.6 µM, respectively.

Take `Cc1c(CCC(=O)N[C@@H](CC(C)C)C(=O)O)c(=O)oc2cc3oc4c(c3cc12)CCCC4`: the IC50 in experiment [1] (HIF-2a PANC, mean of runs) was 2.77 µM; in experiment [1] (HIF-2a PANC, run 1), 2.58 µM; in experiment [1] (HIF-2a PANC, run 2) it was 2.96 µM; in experiment [1] (HIF-2a, mean of runs) it was 1.61 µM; in experiment [1] (HIF-2a, run 1) it was 1.61 µM; in experiment [1] (HIF-2a, run 2) it was 1.61 µM. Moreover, the results for the IC50 in experiment [2] (run 1) and in experiment [2] (run 2) were 2.65 µM and 4.05 µM, respectively. Also, in experiment [2] (mean of runs), the IC50 result was “inactive”.

Consider `Cc1c(CCC(=O)NCCC(=O)O)c(=O)oc2c(C)c3oc4c(c3cc12)CCCC4`, for which the IC50 in experiment [1] (HIF-2a PANC, mean of runs) was 2.65 µM; in experiment [1] (HIF-2a PANC, run 1) it was 2.34 µM; in experiment [1] (HIF-2a PANC, run 2), 2.96 µM; in experiment [1] (HIF-2a, mean of runs), 3.08 µM; in experiment [1] (HIF-2a, run 1), 2.85 µM; in experiment [1] (HIF-2a, run 2) it was 3.32 µM. Moreover, the IC50 in experiment [2] (run 1) turned out to be 1.23 µM; in experiment [2] (run 2), 14.5 µM. Besides, in experiment [2] (mean of runs), the IC50 entry is “inactive”.

These data come from PubChem BioAssay AID651581 (Sanford-Burnham Center for Chemical Genomics, 2012).
